Literature values, collected in paper PMC10379611 (International Journal of Molecular Sciences, 2023).

Details: recommended clinical dose of Paxlovid; cited from earlier work

For `CC(C)c1nc(CN(C)C(=O)N[C@H](C(=O)N[C@@H](Cc2ccccc2)C[C@H](O)[C@H](Cc2ccccc2)NC(=O)OCc2cncs2)C(C)C)cs1` [Ritonavir], the observed plasma concentrations is given as 0.5 µM.
